Assay results published in patent US20240158446A1, “CYCLIC COMPOUND HAVING SELECTIVE INHIBITORY ACTION ON KRAS OVER HRAS AND NRAS” (CHUGAI SEIYAKU KABUSHIKI KAISHA, priority 2021, published 2024).
Read-outs that look alike come from different tables or passages of the source.

Key:
[1] = biological target: GDP-bound KRAS wild-type protein (Homo sapiens, UniProt P01116); assay: Binding to KRAS by surface plasmon resonance (SPR), Single Cycle Kinetics; conditions: GDP-bound KRAS wild-type protein
[2] = biological target: GDP-bound NRAS wild-type protein (Homo sapiens, UniProt P01111); assay: Binding to NRAS by surface plasmon resonance (SPR), Single Cycle Kinetics; conditions: for NRAS/KRAS (ratio of KD value with respect to GDP-bound NRAS wild-type protein to KD value with respect to KRAS): SPR KD ratio NRAS/KRAS, class symbols; for NRAS/KRAS (ratio of KD value for NRAS to KD value for KRAS) / ratio of the KD value with respect to GDP-bound NRAS wild-type protein to the KD value with respect to KRAS: SPR; for NRAS/KRAS (ratio of KD value for NRAS to KD value for KRAS): GDP-bound NRAS wild-type protein vs GDP-bound KRAS wild-type protein
Chain of GDP-bound NRAS wild-type protein (P01111 whole entry): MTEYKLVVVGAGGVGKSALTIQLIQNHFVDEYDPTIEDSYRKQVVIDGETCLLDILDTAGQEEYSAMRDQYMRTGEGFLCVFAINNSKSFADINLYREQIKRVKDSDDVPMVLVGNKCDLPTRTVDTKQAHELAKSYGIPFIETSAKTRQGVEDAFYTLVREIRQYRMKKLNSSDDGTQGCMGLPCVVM

[3] = biological target: GDP-bound HRAS wild-type protein (Homo sapiens, UniProt P01112); assay: Binding to HRAS by surface plasmon resonance (SPR), Single Cycle Kinetics; conditions: for HRAS/KRAS (ratio of KD value with respect to GDP-bound HRAS wild-type protein to KD value with respect to KRAS): SPR KD ratio HRAS/KRAS, class symbols; for HRAS/KRAS (ratio of KD value for HRAS to KD value for KRAS) / ratio of the KD value with respect to GDP-bound HRAS wild-type protein to the KD value with respect to KRAS: SPR; for HRAS/KRAS (ratio of KD value for HRAS to KD value for KRAS): GDP-bound HRAS wild-type protein vs GDP-bound KRAS wild-type protein
Chain of GDP-bound HRAS wild-type protein (P01112 whole entry): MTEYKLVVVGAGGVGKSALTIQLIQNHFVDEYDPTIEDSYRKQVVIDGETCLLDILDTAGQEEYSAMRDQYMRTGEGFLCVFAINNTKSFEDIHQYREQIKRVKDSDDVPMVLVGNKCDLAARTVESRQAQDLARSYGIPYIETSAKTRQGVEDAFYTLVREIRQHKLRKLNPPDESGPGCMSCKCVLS

[4] = system: human lung cancer strain NCI-H441;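 note: cell proliferation inhibition after four days measured by CellTiter-Glo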
[5] = SPR Single Cycle Kinetics, 1:1 binding model, read-out: KRAS KD
[6] = SPR, Single Cycle Kinetics, read-out: KRAS KD
[7] = read-out: NCI-H441 cell proliferation inhibitory activity, 50% proliferation inhibitory concentration (IC50 value), NCI-H441, four days, CellTiter-Glo

Chain of GDP-bound KRAS wild-type protein (P01116 whole entry): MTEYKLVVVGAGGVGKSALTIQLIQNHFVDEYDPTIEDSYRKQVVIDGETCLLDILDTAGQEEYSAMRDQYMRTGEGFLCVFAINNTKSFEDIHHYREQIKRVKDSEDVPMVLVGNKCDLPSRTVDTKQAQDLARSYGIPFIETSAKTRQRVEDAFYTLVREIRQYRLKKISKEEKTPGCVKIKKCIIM

| Structure (SMILES) | Kd [1, 5] [M] | NRAS/KRAS (ratio of KD value with respect to GDP-bound NRAS wild-type protein to KD value with respect to KRAS) [2] | HRAS/KRAS (ratio of KD value with respect to GDP-bound HRAS wild-type protein to KD value with respect to KRAS) [3] | IC50 [4] [nM] | Kd ([1]; KRAS KD (M), SPR Single Cycle Kinetics, 1:1 binding model) [M] | Kd [1, 6] [M] | NRAS/KRAS (ratio of KD value for NRAS to KD value for KRAS) [2] | HRAS/KRAS (ratio of KD value for HRAS to KD value for KRAS) [3] | ratio of the KD value with respect to GDP-bound NRAS wild-type protein to the KD value with respect to KRAS [2] | ratio of the KD value with respect to GDP-bound HRAS wild-type protein to the KD value with respect to KRAS [3] | IC50 [4, 7] [nM] |
| --- | --- | --- | --- | --- | --- | --- | --- | --- | --- | --- | --- |
| CCOC[C@H]1C(=O)N[C@@H]([C@@H](C)CC)C(=O)N(C)CC(=O)N(C)[C@H]2C/C=C\CCN(C2=O)[C@@H](Cc2ccc(C(F)(F)F)cc2)C(=O)N(C)CC(=O)N[C@@H](CCc2ccc(C(F)(F)F)c(OC)c2)C(=O)N2C[C@H](OCC)C[C@H]2C(=O)NC2(CC(C)(C)C2)C(=O)N(C)[C@@H](CC2CCC2)C(=O)N(C)[C@H](C(=O)N(C)C)CC(=O)N1C [PP2765] | 7e-10 | A (a compound having 10 or more and less than 20 is denoted as A) | A (a compound having 10 or more and less than 20 is denoted as A) | 180 |  |  |  |  |  |  |  |
| CCC[C@H]1C(=O)N[C@@H]([C@@H](C)CC)C(=O)N(C)CC(=O)N(C)[C@H]2C/C=C\CCN(C2=O)[C@@H](Cc2ccc(C(F)(F)F)cc2)C(=O)N(C)CC(=O)N[C@@H](CCc2ccc(Cl)c(Cl)c2)C(=O)N2C[C@H](OCC)C[C@H]2C(=O)NC2(CC(C)(C)C2)C(=O)N(C)[C@@H](CC2CCC2)C(=O)N(C)[C@H](C(=O)N(C)C)CC(=O)N1C [PP2766] | 5.2e-10 | A (a compound having 10 or more and less than 20 is denoted as A) | A (a compound having 10 or more and less than 20 is denoted as A) | 26 |  |  |  |  |  |  |  |
| CCOC[C@H]1C(=O)N[C@@H]([C@@H](C)CC)C(=O)N(C)CC(=O)N(C)[C@H]2C/C=C\CCN(C2=O)[C@@H](Cc2ccc(C(F)(F)F)cc2)C(=O)N(C)CC(=O)N[C@@H](CCc2ccc(Cl)c(Cl)c2)C(=O)N2C[C@H](OCC)C[C@H]2C(=O)NC2(CC(C)(C)C2)C(=O)N(C)[C@@H](CC2CCC2)C(=O)N(C)[C@H](C(=O)N(C)C)CC(=O)N1C [PP2767] | 4.9e-10 | A (a compound having 10 or more and less than 20 is denoted as A) | A (a compound having 10 or more and less than 20 is denoted as A) | 62.6 |  |  |  |  |  |  |  |
| CCC[C@H]1C(=O)N[C@@H]([C@@H](C)CC)C(=O)N(C2CC2)CC(=O)N(C)[C@H]2C/C=C\CCN(C2=O)[C@@H](Cc2ccc(C(F)(F)F)cc2)C(=O)N(C)CC(=O)N[C@@H](CCc2cc(F)c(C(F)(F)F)c(F)c2)C(=O)N2C[C@H](OCC)C[C@H]2C(=O)NC2(CC(C)(C)C2)C(=O)N(C)[C@@H](CC2CCC2)C(=O)N(C)[C@H](C(=O)N(C)C)CC(=O)N1C [PP2768] | 5.5e-09 | A (a compound having 10 or more and less than 20 is denoted as A) | A (a compound having 10 or more and less than 20 is denoted as A) | 120 |  |  |  |  |  |  |  |
| CCC[C@H]1C(=O)N[C@@H]([C@@H](C)CC)C(=O)N(C)CC(=O)N(C)[C@H]2C/C=C\CCN(C2=O)[C@@H](Cc2ccc(C(F)(F)F)cc2)C(=O)N(C)CC(=O)N[C@@H](CCc2cc(Cl)c3c(ccn3C)c2)C(=O)N2C[C@H](OCC)C[C@H]2C(=O)NC2(CC(C)(C)C2)C(=O)N(C)[C@@H](C(CC)CC)C(=O)N(C)[C@H](C(=O)N(C)C)CC(=O)N1C [PP2896] |  | A (a compound having 10 or more and less than 20 is denoted as A) | A (a compound having 10 or more and less than 20 is denoted as A) | 79.3 | 2.8e-09 |  |  |  |  |  |  |
| CCO[C@@H]1C[C@H]2C(=O)NC3(CC(C)(C)C3)C(=O)N(C)[C@@H](C(CC)CC)C(=O)N(C)[C@H](C(=O)N(C)C)CC(=O)N(C)[C@H]3CCC/C=C/c4ccc(cc4)C[C@@H](C(=O)N(C)CC(=O)N[C@@H](CCc4cc(F)c(C(F)(F)F)c(F)c4)C(=O)N2C1)N1CC/C=C\C[C@@H](C1=O)N(C)C(=O)CN(C1CC1)C(=O)[C@H]([C@@H](C)CC)NC3=O [PP2955] | 1.4e-10 | A (a compound having 10 or more and less than 20 is denoted as A) | A (a compound having 10 or more and less than 20 is denoted as A) | 7.7 |  |  |  |  |  |  |  |
| CC[C@H](C)[C@@H]1NC(=O)[C@@H]2CCC/C=C/c3ccc(cc3)C[C@@H](C(=O)N(C)CC(=O)N[C@@H](CCc3ccc(Cl)c(Cl)c3)C(=O)N3C[C@H](OC4CCC4)C[C@H]3C(=O)NC3(CC(C)(C)C3)C(=O)N(C)[C@@H](C3CCCC3)C(=O)N(C)[C@H](C(=O)N(C)CC)CC(=O)N2C)N2CC/C=C\C[C@@H](C2=O)N(C)C(=O)CN(C)C1=O [PP3058] |  |  |  | 21.2 |  | 2.1e-10 | A (a compound having 10 or more and less than 20 is denoted as A) | A (a compound having 10 or more and less than 20 is denoted as A) |  |  |  |
| CCO[C@@H]1C[C@H]2C(=O)N(C)C3(CC(C)(C)C3)C(=O)N(C)[C@@H](C3CCCC3)C(=O)N(C)[C@H](C(=O)N(C)C)CC(=O)N(C)[C@H]3CCC/C=C/c4ccc(cc4)C[C@@H](C(=O)N(C)CC(=O)N[C@@H](CCc4ccc(Cl)c(Cl)c4)C(=O)N2C1)N1CC/C=C\C[C@@H](C1=O)N(C)C(=O)CN(C)C(=O)[C@H]([C@@H](C)CC)NC3=O [PP3059] |  |  |  | 2.1 |  | 5.5e-11 | A (a compound having 10 or more and less than 20 is denoted as A) | A (a compound having 10 or more and less than 20 is denoted as A) |  |  |  |
| CCO[C@@H]1C[C@H]2C(=O)N(C)C3(CC(C)(C)C3)C(=O)N(C)[C@@H](C3CCCC3)C(=O)N(C)[C@H](C(=O)N(C)C)CC(=O)N(C)[C@H]3CCC/C=C/c4ccc(cc4)C[C@@H](C(=O)N(C)CC(=O)N[C@@H](CCc4ccc(Cl)c(Cl)c4)C(=O)N2C1)N1CC/C=C\C[C@@H](C1=O)N(C)C(=O)CN(C1CC1)C(=O)[C@H]([C@@H](C)CC)NC3=O [PP3061] |  |  |  | 4.4 |  | 1.3e-10 | A (a compound having 10 or more and less than 20 is denoted as A) | A (a compound having 10 or more and less than 20 is denoted as A) |  |  |  |
| CC[C@H](C)[C@@H]1NC(=O)[C@@H]2CCCCCc3ccc(cc3)C[C@@H](C(=O)N(C)CC(=O)N[C@@H](CCc3ccc(C(F)(F)F)c(OC)c3)C(=O)N3C[C@H](OC(C)C)C[C@H]3C(=O)NC3(CC(C)(C)C3)C(=O)N(C)[C@@H](C3CCCC3)C(=O)N(C)[C@H](C(=O)N(C)C)CC(=O)N2C)N2CC/C=C\C[C@@H](C2=O)N(C)C(=O)CN(C)C1=O [PP3072] |  |  |  |  |  | 4.8e-11 | A (a compound having 10 or more and less than 20 is denoted as A) | B (a compound having 3 or more and less than 10 is denoted as B) | A (a compound having 10 or more and less than 20 is denoted as A) | B (a compound having 3 or more and less than 10 is denoted as B) | 2.6 |
| CC[C@H](C)[C@@H]1NC(=O)[C@@H]2CCCCCc3ccc(cc3)C[C@@H](C(=O)N(C)CC(=O)N[C@@H](CCc3ccc(C(F)(F)F)c(OC)c3)C(=O)N3C[C@H](OC4CCC4)C[C@H]3C(=O)NC3(CC(C)(C)C3)C(=O)N(C)[C@@H](C3CCCC3)C(=O)N(C)[C@H](C(=O)N(C)C)CC(=O)N2C)N2CC/C=C\C[C@@H](C2=O)N(C)C(=O)CN(C)C1=O [PP3073] |  |  |  |  |  | 2.5e-11 | A (a compound having 10 or more and less than 20 is denoted as A) | A (a compound having 10 or more and less than 20 is denoted as A) | A (a compound having 10 or more and less than 20 is denoted as A) | A (a compound having 10 or more and less than 20 is denoted as A) | 1.9 |
| CC[C@H](C)[C@@H]1NC(=O)[C@@H]2CCCCCc3ccc(cc3)C[C@@H](C(=O)N(C)CC(=O)N[C@@H](CCc3ccc(C(F)(F)F)c(OC)c3)C(=O)N3CC4(CC4)C[C@H]3C(=O)NC3(CC(C)(C)C3)C(=O)N(C)[C@@H](C3CCCC3)C(=O)N(C)[C@H](C(=O)N(C)C)CC(=O)N2C)N2CC/C=C\C[C@@H](C2=O)N(C)C(=O)CN(C)C1=O [PP3074] |  |  |  |  |  | 2.5e-11 | A (a compound having 10 or more and less than 20 is denoted as A) | A (a compound having 10 or more and less than 20 is denoted as A) | A (a compound having 10 or more and less than 20 is denoted as A) | A (a compound having 10 or more and less than 20 is denoted as A) | 2.4 |
